From US20220249441A1, “Homodimeric Tobramycin Adjuvant Repurposes Novobiocin as an Effective Antibacterial Agent Against Gram-Negative Bacteria” (priority 2019, published 2022)

Legend:
P. aeruginosa = assay: Checkerboard assay (antibiotic + adjuvant combination MIC); assay type: cell-based, Pseudomonas aeruginosa; details: for MIC of Novobiocin +Compound 1: 1 at ≤7.1 μM; for MIC of Novobiocin + adjuvant (7.1 μM): PMBN or 1 at 7.1 μM
A. baumannii = assay: as above; assay type: cell-based, Acinetobacter baumannii; details: for MIC of Novobiocin +Compound 1: 1 at ≤7.1 μM; for Fold Potentiation: novobiocin + 1 at ≤7.1 μM
Experimental: (§1) Antimicrobial Susceptibility Assay. The in vitro antimicrobial activity of all compounds/antibiotics against a panel of bacteria was evaluated by microbroth dilution method in accordance with the Clinical and Laboratory Standards Institute (CLSI) guidelines (using ATCC strains as quality control strains) (54). Overnight grown bacterial cultures were diluted in saline to achieve a 0.5 McFarland turbidity, followed by 1:50 dilution in Mueller-Hinton broth (MHB) for inoculation to a final concentration of approximately 5×10^5 CFU/mL. […] The lowest concentration that prevented the visible growth of bacteria was defined as the MIC for each antimicrobial agent. The broth with or without bacterial cells was used as positive or negative control, respectively.
(§2) Checkerboard Assay. Combination studies with different antibiotics were performed in 96-well plates as previously described (19). Briefly, the antibiotic of interest was serially diluted in MHB along the abscissa while the adjuvant (tobramycin homodimer) was serially diluted in MHB along the ordinate. This creates a 10×7 matrices wherein each well consists of a combination of different antibiotic and adjuvant concentrations. Overnight grown bacterial cultures were diluted in saline to achieve a 0.5 McFarland turbidity, followed by 1:50 dilution in Mueller-Hinton broth (MHB) for inoculation to a final concentration of approximately 5×10^5 CFU/mL. […] MIC was recorded as wells with the lowest concentration of drugs with no bacterial growth. The fractional inhibitory concentration (FIC) for each antibiotic was calculated by dividing the MIC of the antibiotic in the presence of adjuvant by the MIC of the antibiotic alone. Similarly, the FIC of adjuvant was calculated by dividing the MIC of the adjuvant in the presence of antibiotic by the MIC of the adjuvant alone. FIC index is the sum of both FICs. FIC indices of ≤0.5 were deemed synergistic; >0.5-4, no interaction; and >4, antagonistic.

E. coli = assay: as above; assay type: cell-based, Escherichia coli; details: for MIC of Novobiocin +Compound 1: 1 at ≤7.1 μM; for MIC of Novobiocin + adjuvant (7.1 μM): PMBN or 1 at 7.1 μM; for Fold Potentiation: novobiocin + 1 at ≤7.1 μM
Experimental: as §1, §2

K. pneumoniae = assay: as above; assay type: cell-based, Klebsiella pneumoniae; details: for MIC of Novobiocin +Compound 1: 1 at ≤7.1 μM; for Fold Potentiation: novobiocin + 1 at ≤7.1 μM
Experimental: as §1, §2

E. cloacae = assay: as above; assay type: cell-based, Enterobacter cloacae; details: for MIC of Novobiocin +Compound 1: 1 at ≤7.1 μM; for Fold Potentiation: novobiocin + 1 at ≤7.1 μM
Experimental: as §1, §2

E. faecium ATCC 27270 = assay: MIC and combination against Gram-positive bacteria; assay type: cell-based
Experimental: (§3) Next, we investigated whether tobramycin by itself would potentiate novobiocin against Gram-negative bacteria.
as §1

MRSA ATCC 33592 = assay: MIC and combination against Gram-positive bacteria; assay type: cell-based; details: MRSA ATCC 33592
Experimental: as §3, §1

MRSE 61589 = assay: MIC and combination against Gram-positive bacteria; assay type: cell-based
Experimental: as §3, §1

MDR A. baumannii = assay: Galleria mellonella in vivo larvae-infection model; details: single dose 100 mg/kg, agent alone; after 24 h
Experimental: Galleria mellonella In vivo Larvae-Infection Model. In vivo synergistic effects were determined using Galleria mellonella infection model, as previously described (49). Briefly, larvae were purchased from The Worm Lady Live Feeder (ON, Canada), stored in their natural habitat at 16° C., and used within 10 days of delivery. The larvae (average weight of 250 mg) were used for tolerability and efficacy studies. Tolerability study was performed by injecting a 10 μL aliquot of antimicrobial agents only at concentrations equivalent to 100 mg/kg or 200 mg/kg. The larvae (ten in each group) were incubated at 37° C. and monitored for 96 h. For efficacy studies, the virulence and bacterial load required to kill 100% of the larvae within 24 h (with no treatment) was first determined, which is approximately 10 CFU. Overnight grown culture of respective MDR A. baumannii isolate was standardized to 0.5 McFarland standard and diluted in PBS to a final concentration of 10^3 CFU/mL. A 10 μL aliquot of this solution (˜10 CFU) was injected into each larva and incubated for 3 h at 37° C. […] Larvae treated with 10 μL of PBS or high concentrations of test antibiotics served as negative and positive control, respectively. The larvae were incubated at 37° C. in Petri dishes lined with filter paper and scored for survivability every 6 h for up to 36 h. […]

A. baumannii ATCC 17978 = assay: microbe, parasite or virus in culture; assay type: cell-based, Acinetobacter baumannii; details: seven serial passages
Experimental: Development of Resistance Study. […] Tobramycin and colistin were included as controls. At 24-hour intervals, the cultures were assessed for growth. […] This serial passaging was repeated for 8 days.

What does the source list for `NC[C@H]1O[C@H](O[C@H]2[C@H](OCCCCc3cn(CCCCO[C@@H]4[C@@H](O[C@H]5O[C@H](CO)[C@@H](O)[C@H](N)[C@H]5O)[C@H](N)C[C@H](N)[C@H]4O[C@H]4O[C@H](CN)[C@@H](O)C[C@H]4N)nn3)[C@@H](O[C@H]3O[C@H](CO)[C@@H](O)[C@H](N)[C@H]3O)[C@H](N)C[C@@H]2N)[C@H](N)C[C@@H]1O.O=C(O)C(F)(F)F.O=C(O)C(F)(F)F.O=C(O)C(F)(F)F.O=C(O)C(F)(F)F.O=C(O)C(F)(F)F.O=C(O)C(F)(F)F.O=C(O)C(F)(F)F.O=C(O)C(F)(F)F.O=C(O)C(F)(F)F.O=C(O)C(F)(F)F` [Compound 1, Tobramycin Homodimer 1]?
MIC of Novobiocin +Compound 1 (P. aeruginosa; P. aeruginosa 259-96918): 8 µg/mL; MIC of Novobiocin +Compound 1 (P. aeruginosa; P. aeruginosa 260-97103): 1 µg/mL; MIC of Novobiocin +Compound 1 (P. aeruginosa; P. aeruginosa 262-101856): 8 µg/mL; MIC of Novobiocin +Compound 1 (P. aeruginosa; P. aeruginosa 264-104354): 8 µg/mL; MIC of Novobiocin +Compound 1 (P. aeruginosa; P. aeruginosa 91433): 1 µg/mL; MIC of Novobiocin +Compound 1 (P. aeruginosa; P. aeruginosa 100036): 8 µg/mL; MIC of Novobiocin +Compound 1 (P. aeruginosa; P. aeruginosa 101243): 1 µg/mL; MIC of Novobiocin +Compound 1 (P. aeruginosa; P. aeruginosa 101885): 8 µg/mL; MIC of Novobiocin +Compound 1 (P. aeruginosa; P. aeruginosa 114228): 16 µg/mL; MIC of Novobiocin +Compound 1 (P. aeruginosa; P. aeruginosa PAO1): 4 µg/mL; MIC of Novobiocin + adjuvant (7.1 μM) (P. aeruginosa; PA 91433): 1 µg/mL; MIC of Novobiocin + adjuvant (7.1 μM) (P. aeruginosa; PA 101243): 1 µg/mL; MIC of Novobiocin + adjuvant (7.1 μM) (P. aeruginosa; PA 114228): 16 µg/mL; MIC of Novobiocin +7.1 μM Compound 1 (P. aeruginosa; PAO1 (wild-type)): 4 µg/mL; MIC of Novobiocin + adjuvant (7.1 μM) (P. aeruginosa; PAO1): 4 µg/mL; MIC of Novobiocin +7.1 μM Compound 1 (P. aeruginosa; PAO200 (efflux-deficient)): 0.125 µg/mL; MIC of Novobiocin +7.1 μM Compound 1 (P. aeruginosa; PAO750 (efflux-deficient)): 0.125 µg/mL; MIC of Novobiocin +Compound 1 (A. baumannii; A. baumannii 027): 0.5 µg/mL; Fold Potentiation (A. baumannii; A. baumannii 027): 16 fold; MIC of Novobiocin +Compound 1 (A. baumannii; A. baumannii 031): 0.5 µg/mL; Fold Potentiation (A. baumannii; A. baumannii 031): 16 fold; MIC of Novobiocin +Compound 1 (A. baumannii; A. baumannii 92247): 0.25 µg/mL; Fold Potentiation (A. baumannii; A. baumannii 92247): 16 fold; MIC of Novobiocin +Compound 1 (A. baumannii; A. baumannii 110193): 1 µg/mL; Fold Potentiation (A. baumannii; A. baumannii 110193): 256 fold; MIC of Novobiocin +Compound 1 (A. baumannii; A. baumannii ATCC 17978): 0.5 µg/mL; Fold Potentiation (A. baumannii; A. baumannii ATCC 17978): 32 fold; MIC of Novobiocin +Compound 1 (A. baumannii; A. baumannii LAC-4): 0.5 µg/mL; Fold Potentiation (A. baumannii; A. baumannii LAC-4): 16 fold; MIC of Novobiocin + adjuvant (7.1 μM) (A. baumannii; AB 92247, PMBN or 1 at 7.1 μM): 0.25 µg/mL; potentiation of novobiocin (A. baumannii; colistin-resistant mutant B of A. baumannii ATCC 17978): did not potentiate; fold potentiation of novobiocin (A. baumannii; novobiocin-resistant mutant A of A. baumannii ATCC 17978): 16 fold; MIC of novobiocin in the presence of compound 1 (A. baumannii; wild-type and MDR A. baumannii clinical isolates, ≤7.1 μM of compound 1): ≤ 1 µg/mL; MIC of Novobiocin +Compound 1 (E. coli; E. coli 94393): 2 µg/mL; MIC of Novobiocin + adjuvant (7.1 μM) (E. coli; E. coli 94393): 2 µg/mL; Fold Potentiation (E. coli; E. coli 94393): 64 fold; MIC of Novobiocin +Compound 1 (E. coli; E. coli 94474): 16 µg/mL; MIC of Novobiocin + adjuvant (7.1 μM) (E. coli; E. coli 94474): 16 µg/mL; Fold Potentiation (E. coli; E. coli 94474): 16 fold; MIC of Novobiocin +Compound 1 (E. coli; E. coli 107115): 8 µg/mL; Fold Potentiation (E. coli; E. coli 107115): 16 fold; MIC of Novobiocin +Compound 1 (E. coli; E. coli ATCC 25922): 2 µg/mL; Fold Potentiation (E. coli; E. coli ATCC 25922): 32 fold; MIC of Novobiocin +Compound 1 (K. pneumoniae; K. pneumoniae 113250): 16 µg/mL; Fold Potentiation (K. pneumoniae; K. pneumoniae 113250): 32 fold; MIC of Novobiocin +Compound 1 (K. pneumoniae; K. pneumoniae 113254): 16 µg/mL; Fold Potentiation (K. pneumoniae; K. pneumoniae 113254): 16 fold; MIC of Novobiocin +Compound 1 (K. pneumoniae; K. pneumoniae 116381): 8 µg/mL; Fold Potentiation (K. pneumoniae; K. pneumoniae 116381): 128 fold; MIC of Novobiocin + adjuvant (7.1 μM) (K. pneumoniae; KP 113254, PMBN or 1 at 7.1 μM): 16 µg/mL; MIC of Novobiocin +Compound 1 (E. cloacae; E. cloacae 117029): 8 µg/mL; Fold Potentiation (E. cloacae; E. cloacae 117029): 128 fold; MIC of Novobiocin +Compound 1 (E. cloacae; E. cloacae 118568): 32 µg/mL; Fold Potentiation (E. cloacae; E. cloacae 118568): 32 fold; MIC of Novobiocin +Compound 1 (E. cloacae; E. cloacae 121187): 8 µg/mL; Fold Potentiation (E. cloacae; E. cloacae 121187): 8 fold; MIC of Novobiocin + adjuvant (7.1 μM) (E. cloacae; EC 118568, PMBN or 1 at 7.1 μM): 32 µg/mL; effect of addition of compound 1 on activity of novobiocin (E. faecium ATCC 27270): did not improve; effect of addition of compound 1 on activity of novobiocin (MRSA ATCC 33592): did not improve; effect of addition of compound 1 on activity of novobiocin (MRSE 61589): did not improve; mortality of infected larvae (MDR A. baumannii): 100%; resistance phenotype after exposure to sub-MIC levels (A. baumannii ATCC 17978): did not generate tobramycin-resistant phenotype
